Laboratory results taken from PubChem BioAssay (NCI).
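GI50 marks 50% less growth. TGI is the concentration that stops growth completely.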

Assays:
Test in all cases: NCI tumour cell line growth inhibition, 384-well format
[1] = system: U251 glioblastoma
[2] = system: OVCAR-3 ovarian
[3] = system: TK-10 renal
[4] = system: KM12 colon
[5] = system: UACC-62 melanoma
[6] = system: CAKI-1 renal
[7] = system: RXF 393 renal
[8] = system: HCC-2998 colon
[9] = system: ACHN renal
[10] = system: HL-60(TB) leukemia
[11] = system: SK-OV-3 ovarian
[12] = system: HT29 colon
[13] = system: CCRF-CEM leukemia
[14] = system: NCI-H226 lung
[15] = system: MDA-MB-468 breast
[16] = system: SF-268 CNS
[17] = system: BT-549 breast
[18] = system: MOLT-4 leukemia
[19] = system: IGROV1 ovarian
[20] = system: COLO 205 colon
[21] = system: SN12C renal
[22] = system: SK-MEL-5 melanoma
[23] = system: SR leukemia
[24] = system: SW-620 colon
[25] = system: NCI-H460 NSCLC
[26] = system: 786-0 renal
[27] = system: A549 NSCLC
[28] = system: SK-MEL-2 melanoma
[29] = system: MDA-MB-231 breast
[30] = system: MCF7 breast
[31] = system: M14 melanoma
[32] = system: SNB-19 CNS
[33] = system: SF-539 CNS
[34] = system: UACC-257 melanoma
[35] = system: NCI-H522 lung
[36] = system: OVCAR-4 ovarian
[37] = system: MDA-MB-435 melanoma
[38] = system: MALME-3M melanoma
[39] = system: SF-295 CNS
[40] = system: NCI-H322M lung
[41] = system: PC-3 prostate
[42] = system: OVCAR-8 ovarian
[43] = system: NCI-H23 lung
[44] = system: NCI/ADR-RES ovarian
[45] = system: T-47D breast
[46] = system: HS 578T breast
[47] = system: HOP-62 NSCLC
[48] = system: DU-145 prostate
[49] = system: HOP-92 NSCLC
[50] = system: EKVX NSCLC
[51] = system: RPMI-8226 leukemia
[52] = system: HCT-15 colon
[53] = system: A498 renal
[54] = system: SK-MEL-28 melanoma
[55] = system: OVCAR-5 ovarian

Structure (SMILES): Cn1cc(C[C@@H](N)C(=O)O)c2ccccc21
- GI50 [1]: > 100 µM
- TGI [1]: > 100 µM
- GI50 [2]: > 100 µM
- TGI [2]: > 100 µM
- GI50 [3]: > 100 µM
- TGI [3]: > 100 µM
- GI50 [4]: > 100 µM
- TGI [4]: > 100 µM
- GI50 [5]: > 100 µM
- TGI [5]: > 100 µM
- GI50 [6]: > 100 µM
- TGI [6]: > 100 µM
- GI50 [7]: > 100 µM
- TGI [7]: > 100 µM
- GI50 [8]: > 100 µM
- TGI [8]: > 100 µM
- GI50 [9]: > 100 µM
- TGI [9]: > 100 µM
- GI50 [10]: > 100 µM
- TGI [10]: > 100 µM
- GI50 [11]: > 100 µM
- TGI [11]: > 100 µM
- GI50 [12]: > 100 µM
- TGI [12]: > 100 µM
- GI50 [13]: > 100 µM
- TGI [13]: > 100 µM
- GI50 [14]: > 100 µM
- TGI [14]: > 100 µM
- GI50 [15]: > 100 µM
- TGI [15]: > 100 µM
- GI50 [16]: > 100 µM
- TGI [16]: > 100 µM
- GI50 [17]: > 100 µM
- TGI [17]: > 100 µM
- GI50 [18]: > 100 µM
- TGI [18]: > 100 µM
- GI50 [19]: > 100 µM
- TGI [19]: > 100 µM
- GI50 [20]: > 100 µM
- TGI [20]: > 100 µM
- GI50 [21]: > 100 µM
- TGI [21]: > 100 µM
- GI50 [22]: > 100 µM
- TGI [22]: > 100 µM
- GI50 [23]: > 100 µM
- TGI [23]: > 100 µM
- GI50 [24]: > 100 µM
- TGI [24]: > 100 µM
- GI50 [25]: > 100 µM
- TGI [25]: > 100 µM
- GI50 [26]: > 100 µM
- TGI [26]: > 100 µM
- GI50 [27]: > 100 µM
- TGI [27]: > 100 µM
- GI50 [28]: > 100 µM
- TGI [28]: > 100 µM
- GI50 [29]: > 100 µM
- TGI [29]: > 100 µM
- GI50 [30]: > 100 µM
- TGI [30]: > 100 µM
- GI50 [31]: > 100 µM
- TGI [31]: > 100 µM
- GI50 [32]: > 100 µM
- TGI [32]: > 100 µM
- GI50 [33]: > 100 µM
- TGI [33]: > 100 µM
- GI50 [34]: > 100 µM
- TGI [34]: > 100 µM
- GI50 [35]: > 100 µM
- TGI [35]: > 100 µM
- GI50 [36]: > 100 µM
- TGI [36]: > 100 µM
- GI50 [37]: > 100 µM
- TGI [37]: > 100 µM
- GI50 [38]: > 100 µM
- TGI [38]: > 100 µM
- GI50 [39]: > 100 µM
- TGI [39]: > 100 µM
- GI50 [40]: > 100 µM
- TGI [40]: > 100 µM
- GI50 [41]: > 100 µM
- TGI [41]: > 100 µM
- GI50 [42]: > 100 µM
- TGI [42]: > 100 µM
- GI50 [43]: > 100 µM
- TGI [43]: > 100 µM
- GI50 [44]: > 100 µM
- TGI [44]: > 100 µM
- GI50 [45]: > 100 µM
- TGI [45]: > 100 µM
- GI50 [46]: > 100 µM
- TGI [46]: > 100 µM
- GI50 [47]: > 100 µM
- TGI [47]: > 100 µM
- GI50 [48]: > 100 µM
- TGI [48]: > 100 µM
- GI50 [49]: > 100 µM
- TGI [49]: > 100 µM
- GI50 [50]: > 100 µM
- TGI [50]: > 100 µM
- GI50 [51]: > 100 µM
- TGI [51]: > 100 µM
- GI50 [52]: > 100 µM
- TGI [52]: > 100 µM
- GI50 [53]: > 100 µM
- TGI [53]: > 100 µM
- GI50 [54]: > 100 µM
- TGI [54]: > 100 µM
- GI50 [55]: > 100 µM
- TGI [55]: > 100 µM
